Experimental data published in patent publication US6458760B1, “Method for treating tissue damaged from ischemia” (Henry Ford Health System, priority 1998, dated 2002).
Residues, ends and D or L forms follow the SMILES beside them. *: point of attachment. Cbz = O=C(OCc1ccccc1)*; CHN2 = [N-]=[N+]=C*; Bn = c1ccc(C*)cc1

Assays:
[1] = Loss of body weight after MCA occlusion (Example 8); format: in vivo, rat
Procedure: The animal is able to move about and take water as needed. However, animals with severe stroke that are not able to maintain intake of water are supplemented with daily subcutaneous Lactated Ringers solution. Daily body weights are followed to assess nutritional status.
CP-1 dissolved in 1% DMSO and isotonic saline was given intravenously to Wistar rats (15 μl/min) at a concentration of 50 μM for four hours beginning at the end of three hours of MCA occlusion, in accordance with the protocol described hereinabove. Control animals underwent a similar protocol, but they had injected therein a 1% DMSO/Saline as the vehicle for four hours beginning at the end of a three hour MCA occlusion. All animals which survived 7 days were sacrificed and the infarct volume was measured 7 days after the MCA occlusion.
The % loss of body weight from CP-1 treated animals and the control group on Day 1 and Day 7 are tabulated hereinbelow.

Cathepsin L = Cathepsin L (Homo sapiens, UniProt P07711); assay: Cathepsin L inactivation rate, fluorimetric progress curves; format: biochemical; settings: second order inactivation rate constant corrected for substrate; substrate Z-Phe-Arg-AMC; pH 5.4, 30° C.
Procedure: (§1) (“Tian, et al.”) the contents of which are incorporated by reference. More specifically, the value of kobs is given by the slope of a plot of ln [P]∞−[p]t versus t (time). The apparent second-order rate contact for inactivation, k2app was calculated as kobs/[I]. The inactivation-rates (kobs) in the presence of substrate and for different inhibitor concentrations for calpain, cathepsin B and cathepsin L are determined according to the method of Tian, et al. However, k2app is corrected for the presence of substrate (s) to give the second order rate constant k^12app, calculated as k^12app=k2app (1+[s]/Km).
Cathepsins B and L were preactivated with […] DTT in 50 mM sodium acetate buffer, pH 5.4, 1 mM EDTA for 2 h at 4° C. and assayed in the same buffer with 0.01% Brij [poly(oxyethylene) glycol dodecyl ether]. 5 μM (final concentration) CBZ-Phe-Arg-AMC was used as substrate for both for cathepsins B and L. The inhibitors (0.1-1 μM) and substrate were added to the reaction mixture to incubate for 5 min in a cuvette thermostated at 30° C. Then, approximately 0.4 nM and 0.1 nM final concentration of cathepsin B and cathepsin L, respectively, were used to initiate the reaction. […] The progress curves were analyzed over at least 3 half lives to calculate the rate constants of inactivation in accordance with the procedure described by Crawford, C. Mason, R. W., Wilkström, P., and Shaw, E. in an article entitled “The design of peptidyldiazomethane inhibitors to distinguish between the cysteine proteinases calpain II, cathepsin L and cathepsin B.”, Biochem. J. 1988, 253, 751-758, the contents of which are incorporated by reference. The rates of inactivation of various substrates are tabulated hereinbelow.

Cathepsin B [2] = molecular target: Cathepsin B (Homo sapiens, UniProt P07858); assay: Cathepsin B inactivation rate, fluorimetric progress curves; format: biochemical; settings: second order inactivation rate constant corrected for substrate; pH 5.4, 30° C.
Procedure: as §1
Cathepsins B and L were preactivated with […] DTT in 50 mM sodium acetate buffer, pH 5.4, 1 mM EDTA for 2 h at 4° C. and assayed in the same buffer with 0.01% Brij [poly(oxyethylene) glycol dodecyl ether]. […] The inhibitors (0.1-1 μM) and substrate were added to the reaction mixture to incubate for 5 min in a cuvette thermostated at 30° C. Then, approximately 0.4 nM and 0.1 nM final concentration of cathepsin B and cathepsin L, respectively, were used to initiate the reaction. […] The progress curves were analyzed over at least 3 half lives to calculate the rate constants of inactivation in accordance with the procedure described by Crawford, C. Mason, R. W., Wilkström, P., and Shaw, E. in an article entitled “The design of peptidyldiazomethane inhibitors to distinguish between the cysteine proteinases calpain II, cathepsin L and cathepsin B.”, Biochem. J. 1988, 253, 751-758, the contents of which are incorporated by reference. The rates of inactivation of various substrates are tabulated hereinbelow.

cathepsin B [3] = molecular target: T1, cathepsin B (Rattus norvegicus, UniProt P00787); assay: Cathepsin B activity in brain homogenates after 2 h MCA occlusion and infusion; format: in vivo
T1 construct: the brains were extracted and separated with right and left, cortical and subcortical regions and immediately frozen in liquid nitrogen; from tissue; host or cells: rat brain (cortical and subcortical regions), homogenate
Procedure: The protocol of Example 6 was followed except as follows: the rats under went two hours of MCA occlusion, they were administered either CP-1 (50 μM) or 1% DMSO/saline for four hours after reperfusion and the rats were sacrificed after 48 hours of survival.
At that time, the brains were extracted and separated with right and left, cortical and subcortical regions and immediately frozen in liquid nitrogen. The samples were homogenized with buffer, titrated, and then reacted with the substrate CBZ-Arg-Arg-AMC with the resultant fluorescence measured with a fluorophotometer. Activity is expressed in units of enzyme activity per mg of soluble brain protein (mean +SEM).

T1 sequence (P00787 80-333): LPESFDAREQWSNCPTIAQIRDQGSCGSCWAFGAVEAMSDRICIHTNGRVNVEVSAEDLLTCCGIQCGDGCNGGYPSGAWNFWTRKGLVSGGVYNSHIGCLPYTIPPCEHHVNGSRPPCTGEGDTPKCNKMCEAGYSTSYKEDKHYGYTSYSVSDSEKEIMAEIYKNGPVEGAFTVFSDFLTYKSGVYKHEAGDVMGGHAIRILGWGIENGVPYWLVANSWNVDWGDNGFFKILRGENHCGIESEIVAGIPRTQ
Chain of Cathepsin L (P07711 114-333, species assumed): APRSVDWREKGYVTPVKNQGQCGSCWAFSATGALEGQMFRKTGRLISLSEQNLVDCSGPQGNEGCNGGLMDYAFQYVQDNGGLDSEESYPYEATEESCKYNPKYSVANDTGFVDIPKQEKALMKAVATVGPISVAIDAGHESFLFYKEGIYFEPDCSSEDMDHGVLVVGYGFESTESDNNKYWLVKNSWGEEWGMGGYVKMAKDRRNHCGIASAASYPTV

- Cathepsin L k′2app (Cathepsin L): 1,000,000 M^−1S^−1
- Cathepsin B k′2app (Cathepsin B [2]): 8,800 M^−1S^−1
- cathepsin B activity in the subcortical regions versus vehicle (cathepsin B [3]; 50 μM infusion after 2 h MCA occlusion): significantly lower
SMILES: [N-]=[N+]=CC(=O)C(COCc1ccccc1)NC(=O)C(Cc1ccccc1)NC(=O)OCc1ccccc1 (stereo not drawn) [CP-1, benzyloxycarbonyl-Phe-Ser(OBz)-CHN2] (Cbz-Phe-Ser(Bn)-CHN2; configuration not given here)
- % loss of body weight Day 1 ([1]; 50 μM i.v. 4 h, Example 8, control 19 ± 2.0): 16 ± 1.4%
- % loss of body weight Day 7 ([1]; 50 μM i.v. 4 h, Example 8, control 32 ± 3.0): 28 ± 3.4%
- loss of mean body weight, treated versus control ([1]; Day 1 and Day 7): no significant difference
- Cathepsin B activity, Left Cortex (cathepsin B [3]; 50 μM i.v. 4 h after 2 h MCA occlusion, 48 h survival, mean ± SEM, control 0.142 ± 0.02): 0.106 ± .01 units of enzyme activity per mg of soluble brain protein
- Cathepsin B activity, Left Subcortex (cathepsin B [3]; 50 μM i.v. 4 h after 2 h MCA occlusion, 48 h survival, mean ± SEM, control 0.147 ± 0.02, p < 0.05): 0.084 ± .01 units of enzyme activity per mg of soluble brain protein
- Cathepsin B activity, Right Cortex (cathepsin B [3]; 50 μM i.v. 4 h after 2 h MCA occlusion, 48 h survival, mean ± SEM, control 0.181 ± 0.04): 0.113 ± 0.01 units of enzyme activity per mg of soluble brain protein
- Cathepsin B activity, Right Subcortex (cathepsin B [3]; 50 μM i.v. 4 h after 2 h MCA occlusion, 48 h survival, mean ± SEM, control 0.198 ± 0.03, p < 0.05): 0.113 ± 0.02 units of enzyme activity per mg of soluble brain protein
